Results: publication PMC2852069 (Indian Journal of Pharmaceutical Sciences, 2008)
≈ marks a conversion by molar mass, not a printed value.

Legend:
Huh 5-2 cells = conditions: human
in vitro [1] = conditions: human, CC50 Cell growth
[2] = test system: HCV RNA (HCV replicon in Huh 5-2 cells); assay: microbe, parasite or virus in culture; assay type: cell-based, Hepatitis C Virus; conditions: for EC50: Hepatitis C virus, Huh-5-2, 72 h, read-out: EC50 HCV RNA
in vitro [3] = conditions: African green monkey
SARS-CoV = assay: microbe, parasite or virus in culture; assay type: cell-based, Severe Acute Respiratory Syndrome corona virus (SARS-CoV); conditions: for EC50: Severe acute respiratory syndrome coronavirus, Vero C1008, 72 h, read-out: EC50 (50% effective concentration required to reduce virus-induced cytopathicity by 50%)

Row | Compound | CC50 Cell growth (Huh 5-2 cells) | CC50 (in vitro [1]) | EC50 HCV RNA [2] | EC50 [2] | CC50 (in vitro [3]) | Maximum protection (%) (at 125 μg/ml) (SARS-CoV) | EC50 (SARS-CoV) | concentration without toxicity (Huh 5-2 cells)
1 | Cc1cc(C)nc(NS(=O)(=O)c2ccc(/N=C3\C(=O)Nc4ccc(Br)cc43)cc2)n1 [SPIII-5Br] | >50 µg/mL | 42 µg/mL (≈ 86.4 µM) | 17 µg/mL (≈ 35 µM) | 19 µg/mL (≈ 39.1 µM) | > 125 µg/mL | 2% | > 125 µg/mL | 
2 | Cc1cc(C)nc(NS(=O)(=O)c2ccc(/N=C3\C(=O)Nc4ccc(Cl)cc43)cc2)n1 [SPIII-5Cl] |  | > 50 µg/mL |  | > 50 µg/mL | > 125 µg/mL | 10% | > 125 µg/mL | 
3 | Cc1cc(C)nc(NS(=O)(=O)c2ccc(/N=C3\C(=O)Nc4ccc(F)cc43)cc2)n1 [SPIII-5F] |  | 42 µg/mL (≈ 98.7 µM) |  | 6 µg/mL (≈ 14.1 µM) | > 125 µg/mL | 45% | > 125 µg/mL | up to 42 μg/ml
4 | Cc1cc(C)nc(NS(=O)(=O)c2ccc(/N=C3\C(=O)Nc4ccccc43)cc2)n1 [SPIII-5H, 4-[(1,2-dihydro-2-oxo-3H-indol-3-ylidene)amino]-N(4,6-dimethyl-2-pyrimidiny)benzene sulphonamide] | >50 µg/mL | 42 µg/mL (≈ 103 µM) | 19 µg/mL (≈ 46.6 µM) | 17 µg/mL (≈ 41.7 µM) | > 125 µg/mL | 22% | > 125 µg/mL | 
5 | Cc1ccc2c(c1)/C(=N/c1ccc(S(=O)(=O)Nc3nc(C)cc(C)n3)cc1)C(=O)N2 [SPIII-5Me] |  | > 50 µg/mL |  | > 50 µg/mL | > 125 µg/mL | 12% | > 125 µg/mL | 
6 | CC(=O)N1C(=O)/C(=N\c2ccc(S(=O)(=O)Nc3nc(C)cc(C)n3)cc2)c2ccccc21 [SPIII-NA] |  | > 50 µg/mL |  | > 50 µg/mL | > 125 µg/mL | 12% | > 125 µg/mL | 
